Entries after “also recorded” stand apart in the source; their conditions may differ. Like-named read-outs stand apart in the source and are kept apart here.
What was measured:
MCF-7 = test: MTT cytotoxicity assay, MCF-7; type: cell-based, human; conditions: for IC50: Homo sapiens, read-out: IC50 MCF-7; for activity against MCF-7, fold stronger than 5-FU: compared with 5-FU IC50; for activity against MCF-7, fold higher than harmine: compared with harmine IC50; for SI (MCF-7): ratio IC50 HEK293T / IC50 MCF-7
From the text: (§1) We selected four different cancer cell lines for antiproliferative screening in vitro, which we believed would provide sufficient data on the anticancer potential of the prepared harmirins (hepatocellular carcinoma—HepG2, colorectal adenocarcinoma, Dukes’ type C—SW620, colorectal carcinoma—HCT116, and breast adenocarcinoma—MCF-7). Additionally, we included one non-cancer cell line (embryonic kidney—HEK293T) to evaluate harmirins’ selectivity. The commonly used anticancer drug 5-FU and harmine were used as positive controls. Pre-screening was performed using 50 µM of the tested compound. Only compounds that led to more than 50% reduction in mitochondrial metabolic activity at 50 µM concentration were selected for further analysis. The selectivity index (SI) for each harmirin was calculated as a fractional ratio between the IC50 values for HEK293T and the cancer cell line MCF-7 or HCT116 since these two cell lines were the most susceptible to harmirins.
(§2) The experiments were carried out on five human cell lines purchased from American Type Culture Collection (ATCC, PO BOX 1549, manassas, VA 20108, USA): HepG2 (hepatocellular carcinoma; ATCC® HB-8065™), SW620 (colorectal adenocarcinoma; ATCC® CCL-227™), HCT116 (colorectal carcinoma ATCC® CCL-247™), MCF-7 (breast adenocarcinoma, ATCC® HTB-22™), and HEK293T (embryonic kidney cells; ATCC® CRL-3216™). All cell lines were cultured as monolayers and maintained in Dulbecco’s modified Eagle medium (DMEM) (Capricorn Scientific, USA), supplemented with 10% fetal bovine serum (FBS) (Capricorn Scientific, USA), 100 U/mL penicillin, and 100 µg/mL streptomycin (Capricorn Scientific, USA) in a humidified atmosphere with 5% CO2 at 37 °C. Cells were seeded in 96-well plates (Corning, Durham, NC, USA) at 5000–7000 cells per well (depending on the cell doubling time of a specific cell line) in 0.1 mL media and cultured for 24 h. The next day, the medium was aspirated, and cells were treated for 72 h. Only the compounds that led to more than a 50% reduction in mitochondrial metabolic activity at a concentration of 50 µM were selected for further analysis. The following concentrations of selected compounds were used: 25, 10, 5, and 1 µM. Working dilutions were freshly prepared on the day of the testing. A fresh growth medium was added to untreated control cells, which were defined as 100% viable. DMSO (0.13%) in DMEM was considered a negative control. 5-Fluorouracil (5-FU) and harmine were used as positive controls. At the end of treatment, media was removed, and cells were incubated for 1 h with 0.5 mg/mL MTT (Abcam, Cambridge, MA, USA) dissolved in serum-deprived DMEM. The absorbance was directly proportional to cell viability. The MTT-containing media was then removed, and 0.1 mL isopropanol was added per well to lyse cells and dissolve formazan. The optical density was measured at 570 nm using a microplate reader (VICTOR3, PerkinElmer). Each test point was performed in triplicate. The IC50 values (concentration required to decrease viability by 50%) were calculated by using nonlinear regression on the sigmoidal dose–response plots and are expressed as mean ± SD.

MCF-7 cells [1] = test: Cell localization by fluorescence microscopy; type: cell-based, human; conditions: 10 µM, 30 min, MCF-7, DAPI filter
Description: We further examined the intracellular distribution of the compound 12b in MCF-7 cells, based on its fluorescence properties. Therefore, we incubated MCF-7 cells for 30 min with the tested compound 12b and analyzed its localization by fluorescence microscopy (Figure 3). No autofluorescence was detected by examining untreated cells under typical imaging conditions.
The MCF-7 cells were seeded on round microscopic coverslips placed in 24-well-plates (5 × 10^4 cells per well) and grown at 37 °C and 5% CO2 for 24 h in DMEM supplemented with FBS, penicillin, and streptomycin, as described above. Cells were then incubated with compound 12b (10 µM) for 30 min. Afterward, the medium was discharged, coverslips rinsed twice with PBS, placed on the microscopic slides, and immediately analyzed. The uptake and intracellular distribution of the tested derivative were analyzed under a fluorescence microscope (Olympus BX51) at 400 × magnification, using a DAPI filter. Images were captured with an Olympus DP70 Digital Camera.

SW620 = test: MTT cytotoxicity assay, SW620; type: cell-based; conditions: Homo sapiens, read-out: IC50 SW620
From the text: as §1, §2

HEK293T = test: MTT cytotoxicity assay, HEK293T (non-cancer); type: cell-based, human; conditions: for IC50: Homo sapiens, HEK-293T, 72 h, read-out: IC50 Hek293T
From the text: as §1, §2

HepG2 = test: MTT cytotoxicity assay, HepG2; type: cell-based; conditions: Homo sapiens, read-out: IC50 HepG2
From the text: as §1, §2

HCT116 = test: MTT cytotoxicity assay, HCT116; type: cell-based, human; conditions: for IC50: Homo sapiens, read-out: IC50 HCT116; for SI (HCT116): ratio IC50 HEK293T / IC50 HCT116
From the text: as §1, §2

MCF-7 cells [2] = test: Cell cycle analysis by flow cytometry (PI); type: cell-based, human; conditions: harmine 20 µM; for accumulation of cells in the subG1 phase (apoptotic cells) / effect on G1 phase of cell cycle / effect on percentage of cells in S phase: 12b 10 µM; for accumulation of cells in the subG1 phase (apoptotic cells): 48 h, data not shown; for effect on G1 phase of cell cycle / effect on percentage of cells in S phase: after 24 h (12b: persisted after 48 h)
Description: To gain further insight into the potential mechanism of activity of 12b, and to examine whether and how the cell growth inhibition was associated with cell cycle regulation, we assessed its influence on the cell cycle of MCF-7 cells, 24 and 48 h after the treatment and compared it with the influence of the reference compound harmine (Figure 4).
MCF-7 cells were seeded onto 6-well plates (3 × 10^5 cells per well). After 24 h, 12b was added at 10 µM concentration and harmine at 20 µM concentration. After 24 h or 48 h, the attached cells were trypsinized, combined with floating cells, washed with phosphate buffer saline (PBS), fixed with 70% ethanol, and stored at −20 °C. Immediately before analysis, the cells were washed with PBS and stained with 50 μg/mL of propidium iodide (PI) with the addition of 0.1 μg/μL of RNAse A. The stained cells were then analyzed by BD FACScalibur flow cytometer (20,000 counts were measured). The percentage of cells in each cell cycle phase was determined using FlowJo software (TreeStar Inc., USA). The tests were performed in duplicate and repeated in three separate experiments.

HeLa = system: HeLa; parameters: method as in doi:10.1002/slct.201601020; conditions: read-out: GI50 against HeLa; cited from earlier work
HT-29 = system: HT-29; parameters: method as in PMID 26657602; conditions: read-out: IC50 against HT-29; cited from earlier work
HGC-27 = system: HGC-27; parameters: method as in PMID 26657602; conditions: read-out: IC50 against HGC-27; cited from earlier work
[3] = MTT, mean ± SD, non-cancer cell line

Row | melting point | SMILES | IC50 (MCF-7; MCF7, MTT, 72 h, mean ± SD) | SI (MCF-7) (MCF-7) | IC50 (SW620; SW-620, MTT, 72 h, mean ± SD) | IC50 (HEK293T; [3]) | IC50 (HepG2; HepG2, MTT, 72 h, mean ± SD) | IC50 (HCT116; HCT-116, MTT, 72 h, mean ± SD) | SI (HCT116) (HCT116) | also measured
1 | 225.5 to 229.5 °C (dec.) | Cc1ccc2oc(=O)cc(-n3cc(COc4ccc5c(c4)[nH]c4c(C)nccc45)nn3)c2c1 [12b, 6-Methyl-4-(4-(((1-methyl-9H-pyrido[3,4-b]indol-7-yl)oxy)methyl)-1H-1,2,3-triazol-1-yl)-2H-chromen-2-one] | 6.9 ± 0.7 µM | >7.2 | 20.8 ± 0.4 µM | > 50 µM | 19.5 ± 1.5 µM | 4.7 ± 0.6 µM | >10.6 | activity against MCF-7, fold stronger than 5-FU (MCF-7): 3.4 fold; activity against MCF-7, fold higher than harmine (MCF-7): twofold; intracellular distribution (MCF-7 cells [1]): predominantly cytoplasmic distribution; also recorded: localized exclusively in the cytoplasm; also recorded: localization within the cytoplasm, but not within the nucleus; SIs (selectivity towards cancer cells in comparison to HEK293T) (HEK293T; cancer cell line not specified (MCF-7 or HCT116)): > 7.2; accumulation of cells in the subG1 phase (apoptotic cells) (MCF-7 cells [2]): up to 10%; effect on G1 phase of cell cycle (MCF-7 cells [2]): strong G1 arrest; effect on percentage of cells in S phase (MCF-7 cells [2]): reduced the percentage of cells in the S phase; also recorded: drastic reduction in the percentage of cells in the S phase
2 | – | O=c1cc(-c2nccc3c2[nH]c2ccccc23)c2cc(Cl)ccc2o1 [coumarin–β-carboline hybrid] | – | – | – | – | – | – | – | GI50 (HeLa): 67.5 µM
3 | – | COc1cc(-c2nc(Cn3cc(CN4C(=O)c5ccc(C)cc5C4=O)nn3)cc3c2[nH]c2ccccc23)cc(OC)c1OC [β-carboline–triazole hybrid] | – | – | – | – | – | – | – | IC50 (HT-29): 3.67 µM; IC50 (HGC-27): 5.44 µM
4 | 249 to 251 °C (dec.) | Cc1nccc2c1[nH]c1cc(OCc3cn(-c4cc(=O)oc5ccc(F)cc45)nn3)ccc12 [12d, 6-Fluoro-4-(4-(((1-methyl-9H-pyrido[3,4-b]indol-7-yl)oxy)methyl)-1H-1,2,3-triazol-1-yl)-2H-chromen-2-one] | > 50 µM | >1 | > 50 µM | > 50 µM | > 50 µM | > 50 µM | >1 | –
5 | 239.5 to 241 °C (dec.) | O=c1cc(OCc2cn(Cc3nccc4c3[nH]c3ccccc34)nn2)c2cc(F)ccc2o1 [4d, 4-((1-((9H-Pyrido[3,4-b]indol-1-yl)methyl)-1H-1,2,3-triazol-4-yl)methoxy)-6-fluoro-2H-chromen-2-one] | > 50 µM | <0.9 | > 50 µM | 45.8 ± 0.2 µM | > 50 µM | 33.1 ± 7.7 µM | 1.4 | –
6 | 220 to 225 °C (dec.) | Cc1nccc2c1[nH]c1ccc(OCc3cn(-c4cc(=O)oc5ccc(Cl)cc45)nn3)cc12 [11c, 6-Chloro-4-(4-(((1-methyl-9H-pyrido[3,4-b]indol-6-yl)oxy)methyl)-1H-1,2,3-triazol-1-yl)-2H-chromen-2-one] | 13.3 ± 1.5 µM | 0.9 | 30.3 ± 3.9 µM | 12.2 ± 1 µM | 14 ± 1.2 µM | 15.5 ± 4.4 µM | 0.8 | –
7 | 244 to 247 °C (dec.) | Cc1nccc2c1[nH]c1cc(OCc3cn(-c4cc(=O)oc5ccc(Cl)cc45)nn3)ccc12 [12c, 6-Chloro-4-(4-(((1-methyl-9H-pyrido[3,4-b]indol-7-yl)oxy)methyl)-1H-1,2,3-triazol-1-yl)-2H-chromen-2-one] | 38.2 ± 2.5 µM | 1.2 | > 50 µM | 46.2 ± 4.7 µM | > 50 µM | 37.6 ± 6.9 µM | 1.2 | –
8 | 235.5 to 238 °C (dec.) | Cc1nccc2c1[nH]c1ccc(OCc3cn(-c4cc(=O)oc5ccccc45)nn3)cc12 [11a, 4-(4-(((1-Methyl-9H-pyrido[3,4-b]indol-6-yl)oxy)methyl)-1H-1,2,3-triazol-1-yl)-2H-chromen-2-one] | 2.2 ± 0.2 µM | 3 | 8.4 ± 0.3 µM | 6.4 ± 0.2 µM | 6.4 ± 0.2 µM | 3.3 ± 0.4 µM | 2 | activity against MCF-7, fold stronger than 5-FU (MCF-7): 9–13 fold; activity against MCF-7, fold higher than harmine (MCF-7): 5–7 fold
9 | – | COc1ccc2c(c1)[nH]c1c(C)nccc12 [HAR, harmine] | – | 0.9 | – | – | – | – | 3.2 | IC50 (MCF-7; MCF7, 72 h): 13.5 ± 1.1 µM; IC50 (SW620; SW-620, 72 h): 4.7 ± 0.6 µM; IC50 (HEK293T): 12.6 ± 0.8 µM; IC50 (HepG2; HepG2, 72 h): 18.7 ± 0.8 µM; IC50 (HCT116; HCT-116, 72 h): 4 ± 0.8 µM; accumulation of cells in the subG1 phase (apoptotic cells) (MCF-7 cells [2]): ≤ 15%; effect on G1 phase of cell cycle (MCF-7 cells [2]): G1 delay; effect on percentage of cells in S phase (MCF-7 cells [2]): reduction in cells in the S phase; effect on G2/M phase of cell cycle (MCF-7 cells [2]; after 48 h): additional accumulation of cells in the G2/M phase

— paper PMC8587047, “Synthesis and Biological Evaluation of Harmirins, Novel Harmine–Coumarin Hybrids as Potential Anticancer Agents” (Molecules, 2021)
